± gives the standard deviation.
Experiment: chemical recovery from spiked human plasma; higher = better extraction
Settings: pooled human plasma
[1] = extraction method: PES+SPE (3 d PDMS equilibration then HLB SPE)
[2] = extraction method: SPE only (HLB 96-well)
[3] = extraction method: solvent precipitation (ACN + hexane)
[4] = extraction method: SPE only (HLB 96-well), PES comparison experiment

Structure (SMILES)	chemical recovery [1] [%]	chemical recovery [2] [%]	chemical recovery [3] [%]	chemical recovery [4] [%]
O=C(O)CCCOc1ccc(Cl)cc1Cl [2,4-DB]	66.6 ± 7.5	50.7 ± 2.8	61.5 ± 6	
CCn1cc(C(=O)O)c(=O)c2cc(F)c(N3CCNCC3)cc21 [Norfloxacin]			63.3 ± 5.8	
CC(Cc1ccc(C(C)(C)C(=O)O)cc1)CN1C[C@@H](C)O[C@@H](C)C1 (some centres undefined) [Fenpropimorph-acid]	41.2 ± 4.4	42.9 ± 4.1	67.5 ± 3.3	
O=C(Nc1ccccc1)NC1CCCCC1 [1-Cyclohexyl-3-phenylurea]	70.3 ± 10	57.4 ± 16	79.9 ± 4	
O=P(O)(O)Oc1ccccc1 [Phenylphosphate]	0.213 ± 0.049			
N[C@@H](CC(=O)N1CCn2c(nnc2C(F)(F)F)C1)Cc1cc(F)c(F)cc1F [Sitagliptin]	33.4 ± 2.7	30 ± 3.4	72.7 ± 3.6	
CCC(C)n1c(=O)[nH]c(C)c(Br)c1=O (centres undefined) [Bromacil]	64.5 ± 4.7	49.3 ± 3	72.7 ± 2.8	
Cc1cc(C(F)(C(F)(F)F)C(F)(F)F)ccc1NC(=O)c1cccc(I)c1C(=O)NC(C)(C)CS(C)(=O)=O [Flubendiamide]		25.7 ± 6.4	53.1 ± 4.4	
COP(=O)(NC(C)=O)SC (centres undefined) [Acephate]	3.58 ± 0.54	5.48 ± 5.2		
N#CSCSc1nc2ccccc2s1 [2-(Thiocyanomethylthio)benzothiazole]		44.1 ± 2.3	18.4 ± 10	
Oc1ccc2[nH]ccc2c1 [5-Hydroxyindole]			39.3 ± 5.3	
Oc1ccccc1-c1ccccc1O [2,2'-Dihydroxybiphenyl]	46.1 ± 1.6	43.3 ± 2.8		
CCN(CC)c1ccc2c(C)cc(=O)oc2c1 [7-Diethylamino-4-methylcoumarin]	65.9 ± 13	94 ± 5.9	78.3 ± 2.5	47.7 ± 7.5
CCc1cc(Cc2cc(CC)cc(C(C)(C)C)c2O)c(O)c(C(C)(C)C)c1 [2,2'-Methylenebis(ethyl-6-tert-butylphenol)]		3.63 ± 3.5	64.9 ± 8.7	
CN(C)CCC(c1ccc(Cl)cc1)c1ccccn1 (centres undefined) [Chlorpheniramine]	0.333 ± 0.13	33.5 ± 3.4	54 ± 5.6	
Cc1c2ccccc2cc2c1cc(Br)c1ccccc12 [5-Bromo-7-methylbenzo[a]anthracene]		1.01 ± 0.069	58.3 ± 3.7	
C[C@@H](O)CCCCn1c(=O)c2c(ncn2C)n(C)c1=O [Lisofylline]	42.8 ± 3.6	35.7 ± 3.2	76.1 ± 3.5	
CN(C)C(=O)NC1CCCCC1 [3-Cyclohexyl-1,1-dimethylurea]	28.9 ± 9.2	35.4 ± 2.2	61.2 ± 1.1	
CC(=O)Nc1c(C)n(C)n(-c2ccccc2)c1=O [N-Acetyl-4-aminoantipyrine]	44.5 ± 5.9	43.1 ± 2.7		
Oc1cc(O)c2c(c1)O[C@H](c1ccc(O)c(O)c1)[C@H](O)C2 [(-)-Epicatechin]	1.62 ± 1.1	10.4 ± 5.1		
Cn1cnc2c1c(=O)[nH]c(=O)n2C [Theobromine]		77.3 ± 28		
COP(=S)(OC)Oc1c(Cl)cc(C)cc1Cl [Tolclofos-methyl]		33.8 ± 9.1	62 ± 6.2	
C[C@]12CCC(=O)C=C1[C@H](O)C[C@@H]1[C@@H]2[C@@H](O)C[C@@]2(C)[C@H]1CC[C@]2(O)C(=O)CO [6-beta-Hydroxycortisol]				45.1 ± 7.2

Structure (SMILES)	chemical recovery [1] [%]	chemical recovery [2] [%]	chemical recovery [3] [%]	chemical recovery [4] [%]
COc1cc(Cc2cnc(N)nc2N)cc(OC)c1OC [Trimethoprim]	39.2 ± 3.2	45 ± 1.5	72.5 ± 4.2	48 ± 6.2
Cc1cc(C)nc(Nc2ccccc2)n1 [Pyrimethanil]	51.1 ± 7.5	31.2 ± 2.5	61.9 ± 3	
CC#Cc1cc(C)nc(Nc2ccccc2)n1 [Mepanipyrim]			70.7 ± 2.9	
O=C(NC1CCCCC1)NC1CCCCC1 [Dicyclohexylurea]	54.4 ± 4.7	56.9 ± 0.74	78.6 ± 1.8	
O=C(O)C(F)(F)C(F)(F)C(F)(F)C(F)(F)C(F)(F)C(F)(F)C(F)(F)C(F)(F)C(F)(F)C(F)(F)C(F)(F)C(F)(F)C(F)(F)F [Perfluorotetradecanoic acid]			41.3 ± 11	
COc1nc(NC(=O)NS(=O)(=O)c2ccccc2C(F)(F)F)nc(C(F)(F)F)n1 [Tritosulfuron]	72.3 ± 6.7	67.7 ± 4.7	76.1 ± 3.9	
Oc1ccc(C(c2ccc(O)cc2)(C(F)(F)F)C(F)(F)F)cc1 [Bisphenol-AF]	86.8 ± 4.4	51.2 ± 7.6	41.6 ± 2.4	
CCN(CC)CC(=O)Nc1c(C)cccc1C [Lidocaine]	1.08 ± 0.9	37.5 ± 7.4	67.9 ± 4.2	42.3 ± 6.8
O=C(O)c1cccc(C(=O)O)c1 [Isophthalic-acid]			12.5 ± 5.4	
Nc1ccc2c(n1)[nH]c1ccccc12 [2-Amino-9H-pyrido[2,3-b]indole-(AalphaC)]	17.4 ± 2.8	32.5 ± 2.4	62.4 ± 5.3	
CCCCC(CC)COC(=O)CC(C(=O)OCC(CC)CCCC)S(=O)(=O)O (centres undefined) [Dioctylsulfosuccinate]		26.5 ± 1.6		
Cc1c(Br)c(Br)c(Br)c(Br)c1Br [Pentabromotoluene]	61.6 ± 3.7	6.76 ± 2.3		
COc1ccc(C(c2ccc(OC)cc2)C(Cl)Cl)cc1 [1,1-Dichloro-2,2-bis(4-methoxyphenyl)ethan]		9.27 ± 2.4	33.1 ± 7.1	
O=C(O)CCC(F)(F)C(F)(F)C(F)(F)F [3.3-FTCA]	2.63 ± 2.7	0.288 ± 0.082		
CCc1cc(C)cc(CC)c1-c1c(OC(=O)C(C)(C)C)n2n(c1=O)CCOCC2 [Pinoxaden]	0.0892 ± 0.042	21.1 ± 3.2		
Nc1ccc(Nc2ccccc2)cc1 [4-Aminodiphenylamine]	1.74 ± 1.1	1.91 ± 0.31		
CC(=O)CCC1C(C)=CCCC1(C)C (stereo not drawn) [Dihydro-alpha-ionone]		3.54 ± 6.1		
Cc1cc(C)nc(N)n1 [2-Amino-4,6-dimethylpyrimidine]		2.25 ± 2.4		
[O-][n+]1cccc2ccccc21 [Quinoline N-oxide]	42.6 ± 6	43.8 ± 0.64	76.1 ± 3.2	
CC1CC(CC2CCC(N)C(C)C2)CCC1N (centres undefined) [Bis(4-amino-3-methylcyclohexyl)methane]			41.1 ± 7.7	
CC[S+]([O-])CCSP(=O)(OC)OC (centres undefined) [Demeton-S-methyl-sulfoxide]	35.2 ± 3.8	30.2 ± 2.2	42.7 ± 12	
c1ccc(COc2ccc3ccccc3c2)cc1 [Benzyl-2-naphthylether]		0.473 ± 0.12	24.2 ± 0.93	
CCCN(CCC)CCC [Tripropylamine]		7.35 ± 6.9	2.09 ± 3.1	

Structure (SMILES)	chemical recovery [1] [%]	chemical recovery [2] [%]	chemical recovery [3] [%]	chemical recovery [4] [%]
CCCCc1ncc(/C=C(\Cc2cccs2)C(=O)O)n1Cc1ccc(C(=O)O)cc1 [Eprosartan]		44.3 ± 4.6		
Cc1nnc(-c2ccccc2)c(=O)[nH]1 [Metamitron-desamino]	53 ± 3.3	49.5 ± 3.9	73.9 ± 3.2	
C1CCC(NC2CCCCC2)CC1 [Dicyclohexylamine]		35.2 ± 2.1	53.8 ± 6.1	
CC(=O)CCc1ccc(O)cc1 [4-(4-Hydroxyphenyl)butan-2-one]	64.8 ± 5.4	60 ± 5.2	64.5 ± 4	
CC(C)N1C(=O)c2ccccc2N(C)S1(=O)=O [Bentazone-methyl]	53.5 ± 11	28.9 ± 1.5	46.3 ± 5.3	
OC(Cn1cncn1)(c1ccc(F)cc1)c1ccccc1F (centres undefined) [Flutriafol]	43.2 ± 5.4	41.9 ± 3.3	78.9 ± 4	
CC(C)c1ccc2c(c1)CC[C@H]1[C@](C)(C(=O)O)CCC[C@]21C [Dehydroabietic-acid]		29.7 ± 1.9		
O=C1C2CC3C1C1(Cl)C(Cl)C4(Cl)C2C3C1(Cl)C4(Cl)Cl (centres undefined) [Endrin ketone]		7.89 ± 2.1	15.3 ± 1.4	
C[N+](C)(C)CCCl [Chlormequat]	0.51 ± 0.024	0.778 ± 0.52	85 ± 12	10.2 ± 8.2
CCCCC(CC)COP(=O)(O)OCC(CC)CCCC (centres undefined) [Bis(2-ethylhexyl)phosphate]	16.4 ± 4.5	20.3 ± 2.5	52.8 ± 4.3	3.88 ± 1.6
CC(C)NCC(O)COc1ccc(CC(=O)O)cc1 (centres undefined) [Metoprolol acid]	41.1 ± 5	33.5 ± 2.9	54.1 ± 9.1	
C=C(C)C(=O)NCCCN(C)C [N-(3-Dimethylamino)propyl)methacrylamide]	42.3 ± 14	39.9 ± 3.7		
Clc1ccc(C(c2ccc(Cl)cc2)C(Cl)(Cl)Cl)cc1 [4,4-DDT]				52.8 ± 20
CNC(=O)c1cc(Oc2ccc(NC(=O)Nc3ccc(Cl)c(C(F)(F)F)c3)cc2)ccn1 [Sorafenib]		61.3 ± 14	74.4 ± 5.8	
CCN(CC)C(=O)c1cccc(C)c1 [DEET]		30.1 ± 3	52.6 ± 4.4	
C#CCN1C(=O)COc2cc(F)c(N3C(=O)C4=C(CCCC4)C3=O)cc21 [Flumioxazin]	47.2 ± 4.8	40.9 ± 0.44	5.96 ± 5.2	38.5 ± 7.6
O=C1CCCCCCCCCCC1 [Cyclododecanone]		4.5 ± 3.9		
CCCCCCCCCCCCCCOS(=O)(=O)O [Tetradecylsulfate]		28.4 ± 6.5	35.5 ± 5.1	
NC(=O)c1c(Cl)cccc1Cl [2,6-Dichlorobenzamide]		63.3 ± 4.5		
Cc1cccc(C)c1N(Cn1cccn1)C(=O)CO [Metazachlor-2-hydroxy]	49 ± 6.5	40.1 ± 3.3	73.7 ± 3.7	
CC[C@H](C)[C@H]1O[C@]2(CC[C@@H]1C)C[C@@H]1C[C@@H](C/C=C(\C)[C@@H](O[C@H]3C[C@H](OC)[C@@H](O[C@H]4C[C@H](OC)[C@@H](O)[C@H](C)O4)[C@H](C)O3)[C@@H](C)/C=C/C=C3\CO[C@@H]4[C@H](O)C(C)=C[C@@H](C(=O)O1)[C@]34O)O2 [Ivermectin-B1a]		11.5 ± 2.3	30.3 ± 2.3	
Cn1c(N)nc2ncc(-c3ccccc3)cc21 [2-Amino-1-methyl-6-phenylimidazo[4,5-b]pyridine (PhIP)]	38.9 ± 2.9	39.3 ± 2.8	72.4 ± 2.8	47 ± 5.8
